Experimental data published in US20030232101A1, “Topical formulations of resorcinols and cannibinoids and methods of use” (Immugen Pharmaceuticals, Inc., priority 2002, published 2003).

Legend:
Type in all cases: cell-based
[1] = test system: interaction of HIV gp 120 with CD4 (HeLa CD4 LTR β-gal / HL2/3 cell fusion); experiment: HeLa CD4 LTR β-gal/HL2/3 HIV-1 fusion assay (Experimental Example 1); settings: fusion assay
Excerpt: This assay uses the HeLa CD4 LTR β-gal and HL2-3 cells available from the AIDS Research and Reference Reagent Repository. The fusion assay utilizes HeLa CD4 LTR β-gal cells with HL2/3 cells as a fusion partner via the interaction of HIV gp 120 with CD4. HL2/3 cells express HIV-1 Env on their cell surface and contain an HIV-1 Tat expression cassette. Upon syncytium formation and plasma membrane fusion, cytoplasmic mixing of the HL2/3 and HeLa CD4 LTR b-gal cell contents results in the transactivation of the LTR and β-Galactosidase expression is then directly related to […] cell membrane fusion. Thus, these two mechanistic assays can be used to confirm and identify a virus entry-based target of the compound. Additionally, because the attachment assay uses cell-free virus this assay can be used to show applicability to cell-free virus transmission.
Twenty-four h prior to initiation of the assay cells were trypsinized, counted and 5×10^3 cells placed in a 0.2 cm well in media without selection antibiotics. To initiate the fusion assay HeLa CD4 LTR β-gal (5×10^3 cells per 0.2 cm well) were incubated with compound for 1 h at 37° C. HL2/3 cells (5×10^3) were added to the 0.2 cm well and the incubation continued for 48 h. At 48 h the wells were washed 1 time with PBS and β-galactosidase enzyme expression determined by chemiluminescence per manufacturers instructions (Tropix Gal-screen™, Tropix, Bedford, Mass.). Compound toxicity was monitored on sister plates using MTS dye reduction.
In addition to assessing inhibition of attachment with HeLa CD4 LTR β-gal cells a virus fusion assay was perfoed using HeLa CD4 LTR β-gal and HL2/3 cells. No timed addition of compound was employed, but rather the assay was performed to verify the effects of the compounds on the HeLa CD4 LTR β-gal cells β-galactosidase expression.

[2] = Compound toxicity in the fusion assay, sister plate, XTT or MTS (Example 2); settings: human, HeLa CD4 LTR β-gal cells, read-out: Fusion Assay TC50
Method: (§1) The fusion assay assesses the ability of compounds to block cell-to-cell fusion mediated by HIV-1 Env and CD4 expressed on separate cells. This assay is sensitive to inhibitors of both the gp 120/CD4 interaction and inhibitors of the X4 coreceptor. HeLa CD4 LTR β-gal cells were plated in microtiter wells and diluted compounds are added and allowed to incubate at 37° C. for 1 hr prior to the addition of HL2/3 cells. The incubation was then continued for 40 to 48 h, after which fusion is monitored by measurement of β-galactosidase enzyme expression, detectable by chemiluminescence (Tropix Gal-screen, Tropix, Bedford, Mass.). Compound toxicity is monitored on a sister plate using XTT or MTS dye reduction. All determinations are performed in triplicate with serial_Log10 dilution of the test materials.

[3] = Compound toxicity in the attachment assay, sister plate, XTT or MTS (Example 2); settings: human, HeLa CD4 LTR β-gal cells, read-out: Attachment Assay TC50
Method: (§2) This assay detects compounds that block virus attachment using HeLa CD4 LTR β-gal cells. HeLa CD4 LTR β-gal cells were cultured with selection antibiotics. Twenty-four h prior to initiation of the assay, the cells were trypsinized, counted and plated in a 0.2 cm well in media without selection antibiotics. At 24 h media is removed and compound in media placed on the cells and incubated for 15 min at 37° C. A known titer of the IIIB strain of HIV-1 was then added to the wells and the incubation continued for 1 to 2 h. At the end of the incubation the wells were washed 2 times with media and the culture continued for 40 to 48 h. At termination of the assay, media is removed and β-galactosidase enzyme expression determined by chemiluminescence per manufacturer's instructions (Tropix Gal-screen, Bedford Mass.). Compound toxicity is monitored on a sister plate by XTT or MTS dye reduction. All determinations are performed in triplicate with serial_Log10 dilution of the test materials. The virus adsorption interval of 1 to 2 h was sufficiently short that AZT, which requires phosphorylation to achieve its active tri-phosphate form (AZT-TTP), is not active in this assay.

[4] = test system: cell-to-cell fusion mediated by HIV-1 Env and CD4; experiment: Fusion assay, HeLa CD4 LTR β-gal and HL2/3 cells (Experimental Example 2); settings: Human immunodeficiency virus 1, HL2/3, read-out: Fusion Assay IC50
Method: as §1

HeLa CD4 LTR β-gal cells = experiment: Compound toxicity in the attachment assay, sister plate, XTT or MTS (Example 2)
Method: as §2

## C=C(C)[C@@H]1CCC(C)=C[C@H]1c1c(O)cc(CCCCC)cc1O [Cannabidiol, reference compound]
[1]
  Comments: suppression of β-galactosidase activity: Suppression of β-galactosidase

## CC1=CCC2C(C1)c1c(O)cc(C(C)(C)CCCC(C)C)cc1OC2(C)C (stereo not drawn) [IMG509, 3-Norpentyl-3-(1,1,5-trimethylhexyl)-Δ8-tetrahydrocannabinol]
[2]
  CC50: 18.4 µM
[3]
  CC50: > 10 µM
[4]
  IC50: 1.21 µM
[1]
  Comments: suppression of β-galactosidase activity: Suppression of β-galactosidase

## Cc1c(O)cc(C(C)(C)CCCC(C)C)cc1O [IMG510, 2-Methyl-5-(1,1,5-trimethylhexyl)resorcinol]
[2]
  CC50: > 100 µM
[3]
  CC50: > 10 µM
[4]
  IC50: 1.36 µM

## Cc1ccc2c(c1)-c1c(O)cc(C(C)(C)CCCC(C)C)cc1OC2(C)C [IMG511, 3-Norpentyl-3-(1,1,5-trimethylhexyl)cannabinol]
[2]
  CC50: 20.7 µM
HeLa CD4 LTR β-gal cells
  Attachment Assay TC50: >67 µM
[4]
  IC50: 0.92 µM
[1]
  Comments: suppression of β-galactosidase activity: Suppression of β-galactosidase
